# Measurements taken from ChEMBL document CHEMBL3596159, “Beyond substrate analogues: new inhibitor chemotypes for glycosyltransferases” (Medchemcomm, 2014).
# Legend:
# Candida albicans = experiment: Antifungal activity against Candida albicans; assay type: functional
# [1] = Inhibition of candida albicans beta-(1,3)-glucan synthase assessed as decrease in transfer of radiolabelled glucose from UDP-[3H]-glucose onto acceptor
# [2] = target: T1, Alpha-(1,3)-fucosyltransferase 7 (Homo sapiens, UniProt Q11130); experiment: Inhibition of FucT-7 (unknown origin)
# T1 sequence (Q11130 whole entry): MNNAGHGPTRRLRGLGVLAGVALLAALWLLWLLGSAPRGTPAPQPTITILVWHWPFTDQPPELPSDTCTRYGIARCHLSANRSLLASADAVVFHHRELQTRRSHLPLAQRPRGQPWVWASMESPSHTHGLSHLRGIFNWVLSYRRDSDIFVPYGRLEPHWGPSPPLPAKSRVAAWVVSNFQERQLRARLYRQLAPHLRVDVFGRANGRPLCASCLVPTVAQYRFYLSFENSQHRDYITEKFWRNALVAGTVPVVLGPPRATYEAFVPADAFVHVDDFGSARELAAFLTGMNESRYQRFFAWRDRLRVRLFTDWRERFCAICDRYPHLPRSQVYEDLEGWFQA
# [3] = target: Ceramide glucosyltransferase (Homo sapiens, UniProt Q16739); experiment: Inhibition of glucosylceramide synthase (unknown origin)
# [4] = Inhibition of short OGT (unknown origin); set-up: species or system Homo sapiens
# [5] = target: UDP-N-acetylglucosamine--peptide N-acetylglucosaminyltransferase 110 kDa subunit (Homo sapiens, UniProt O15294); experiment: Inhibition of nucleocytoplasmic OGT (unknown origin)
# [6] = target: Alpha-(1,6)-fucosyltransferase (Homo sapiens, UniProt Q9BYC5); experiment: Inhibition of FucT-8 in human blood platelets
# [7] = Inhibition of MGDG (unknown origin)
# [8] = target: Beta-galactoside alpha-2,6-sialyltransferase 1 (Rattus norvegicus, UniProt P13721); experiment: Inhibition of rat ST6Gal1
# [9] = target: T2, Beta-galactoside alpha-2,6-sialyltransferase 1 (Homo sapiens, UniProt P15907); experiment: Inhibition of human ST6Gal1
# T2 sequence (P15907 whole entry): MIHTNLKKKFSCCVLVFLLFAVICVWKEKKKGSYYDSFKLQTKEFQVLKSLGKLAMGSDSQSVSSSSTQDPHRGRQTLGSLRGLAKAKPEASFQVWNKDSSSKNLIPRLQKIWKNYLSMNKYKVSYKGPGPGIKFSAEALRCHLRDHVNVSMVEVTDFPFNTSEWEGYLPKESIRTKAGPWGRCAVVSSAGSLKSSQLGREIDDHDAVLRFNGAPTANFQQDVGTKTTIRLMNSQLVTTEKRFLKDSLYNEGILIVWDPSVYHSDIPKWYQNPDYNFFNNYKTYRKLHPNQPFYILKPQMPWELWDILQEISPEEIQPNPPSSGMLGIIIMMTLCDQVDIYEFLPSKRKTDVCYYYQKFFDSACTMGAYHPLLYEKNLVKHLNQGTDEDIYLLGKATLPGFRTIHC
# [10] = target: UDP-N-acetylglucosamine--N-acetylmuramyl-(pentapeptide) pyrophosphoryl-undecaprenol N-acetylglucosamine transferase (Escherichia coli (strain K12), UniProt P17443); experiment: Inhibition of Escherichia coli MurG
# [11] = target: T3, UDP-N-acetylglucosamine--N-acetylmuramyl-(pentapeptide) pyrophosphoryl-undecaprenol N-acetylglucosamine transferase (Escherichia coli (strain K12)) (UniProt P17443); experiment: Inhibition of Escherichia coli MurG at 2.5 microg/ml
# T3 sequence (whole entry): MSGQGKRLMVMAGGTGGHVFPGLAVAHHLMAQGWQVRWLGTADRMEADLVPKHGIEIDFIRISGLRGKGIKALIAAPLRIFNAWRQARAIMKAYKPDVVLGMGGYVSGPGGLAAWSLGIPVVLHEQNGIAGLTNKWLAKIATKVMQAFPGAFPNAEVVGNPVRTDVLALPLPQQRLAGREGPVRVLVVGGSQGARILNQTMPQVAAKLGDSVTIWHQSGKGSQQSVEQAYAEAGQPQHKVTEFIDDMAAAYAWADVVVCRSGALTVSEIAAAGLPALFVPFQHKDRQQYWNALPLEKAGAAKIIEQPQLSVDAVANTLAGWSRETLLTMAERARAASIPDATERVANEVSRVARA
# [12] = target: T4, CMP-N-acetylneuraminate-beta-galactosamide-alpha-2,3-sialyltransferase 1 (Homo sapiens, UniProt Q11201); experiment: Inhibition of ST3Gal 1 (unknown origin)
# T4 sequence (Q11201 whole entry): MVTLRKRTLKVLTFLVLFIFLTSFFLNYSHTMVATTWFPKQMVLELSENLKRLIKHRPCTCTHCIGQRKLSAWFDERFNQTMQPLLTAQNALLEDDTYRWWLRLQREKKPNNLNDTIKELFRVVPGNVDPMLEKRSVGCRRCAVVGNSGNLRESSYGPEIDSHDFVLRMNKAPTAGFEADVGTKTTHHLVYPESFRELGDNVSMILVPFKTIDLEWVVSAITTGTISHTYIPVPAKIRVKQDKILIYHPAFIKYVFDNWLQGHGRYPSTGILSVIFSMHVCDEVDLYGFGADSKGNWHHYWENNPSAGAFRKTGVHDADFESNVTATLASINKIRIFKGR
# [13] = target: T5, 4-galactosyl-N-acetylglucosaminide 3-alpha-L-fucosyltransferase FUT5 (Homo sapiens, UniProt Q11128); experiment: Inhibition of FucT-5 (unknown origin)
# T5 sequence (Q11128 whole entry): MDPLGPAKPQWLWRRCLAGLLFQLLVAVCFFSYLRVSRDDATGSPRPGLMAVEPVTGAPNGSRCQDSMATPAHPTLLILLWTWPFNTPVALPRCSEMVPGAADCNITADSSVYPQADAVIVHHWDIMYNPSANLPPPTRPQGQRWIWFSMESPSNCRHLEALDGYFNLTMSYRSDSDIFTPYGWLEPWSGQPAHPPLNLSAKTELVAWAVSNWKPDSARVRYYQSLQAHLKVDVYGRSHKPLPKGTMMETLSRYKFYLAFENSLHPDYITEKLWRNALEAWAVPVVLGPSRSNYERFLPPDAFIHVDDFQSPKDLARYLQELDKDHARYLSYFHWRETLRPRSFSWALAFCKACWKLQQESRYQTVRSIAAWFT
# [14] = target: T2, Beta-galactoside alpha-2,6-sialyltransferase 1; experiment: Inhibition of ST6N (unknown origin)
# [15] = target: T6, CMP-N-acetylneuraminate-beta-1,4-galactoside alpha-2,3-sialyltransferase (Homo sapiens, UniProt Q11203); experiment: Inhibition of ST3N (unknown origin)
# T6 sequence (Q11203 whole entry): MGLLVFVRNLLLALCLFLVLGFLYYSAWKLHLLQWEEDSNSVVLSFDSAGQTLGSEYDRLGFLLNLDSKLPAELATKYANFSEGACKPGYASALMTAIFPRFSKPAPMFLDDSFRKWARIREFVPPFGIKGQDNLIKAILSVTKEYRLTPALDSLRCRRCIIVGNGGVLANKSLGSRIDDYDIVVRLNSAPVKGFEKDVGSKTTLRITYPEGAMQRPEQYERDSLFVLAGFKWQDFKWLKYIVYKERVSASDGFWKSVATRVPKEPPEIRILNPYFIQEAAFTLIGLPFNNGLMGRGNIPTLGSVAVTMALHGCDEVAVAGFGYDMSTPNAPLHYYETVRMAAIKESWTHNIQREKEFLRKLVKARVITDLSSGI
# [16] = target: T7, 4-galactosyl-N-acetylglucosaminide 3-alpha-L-fucosyltransferase FUT6 (Homo sapiens, UniProt P51993); experiment: Inhibition of FucT-6 (unknown origin)
# T7 sequence (P51993 whole entry): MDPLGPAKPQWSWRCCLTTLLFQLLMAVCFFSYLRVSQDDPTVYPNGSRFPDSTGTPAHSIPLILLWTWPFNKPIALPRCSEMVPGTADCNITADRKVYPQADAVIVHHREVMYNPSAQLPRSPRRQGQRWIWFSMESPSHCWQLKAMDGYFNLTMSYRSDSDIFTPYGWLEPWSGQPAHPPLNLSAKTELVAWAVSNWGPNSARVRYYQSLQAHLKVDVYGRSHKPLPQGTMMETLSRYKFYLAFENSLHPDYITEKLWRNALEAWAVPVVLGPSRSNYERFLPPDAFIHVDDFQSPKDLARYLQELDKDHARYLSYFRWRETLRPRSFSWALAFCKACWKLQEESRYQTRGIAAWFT
# [17] = target: Alpha-(1,3)-fucosyltransferase 4 (Homo sapiens, UniProt P22083); experiment: Inhibition of FucT-4 (unknown origin)
# [18] = Inhibition of human beta-1,4-GalT
# [19] = target: T4, CMP-N-acetylneuraminate-beta-galactosamide-alpha-2,3-sialyltransferase 1; experiment: Inhibition of ST3Gal 1 (unknown origin) expressed in High Five cells; set-up: species or system BTI-TN-5B1-4
# [20] = target: T8, Phospho-N-acetylmuramoyl-pentapeptide-transferase/UDP-N-acetylglucosamine--N-acetylmuramyl-(pentapeptide) pyrophosphoryl-undecaprenol N-acetylglucosamine transf (Escherichia coli K-12, UniProt P0A6W3+P17443); experiment: Inhibition of Escherichia coli MraY/MurG; assay type: protein assay
# T8 sequence (P0A6W3 whole entry): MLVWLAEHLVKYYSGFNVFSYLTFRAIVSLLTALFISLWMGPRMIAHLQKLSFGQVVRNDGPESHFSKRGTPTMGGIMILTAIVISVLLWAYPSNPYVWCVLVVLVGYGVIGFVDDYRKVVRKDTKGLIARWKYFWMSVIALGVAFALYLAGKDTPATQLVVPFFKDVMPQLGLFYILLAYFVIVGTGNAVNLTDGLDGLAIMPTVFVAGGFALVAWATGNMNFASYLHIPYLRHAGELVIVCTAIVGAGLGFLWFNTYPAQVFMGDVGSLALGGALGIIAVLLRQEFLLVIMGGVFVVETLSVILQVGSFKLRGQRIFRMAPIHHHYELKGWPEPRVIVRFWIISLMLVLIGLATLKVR
# T8 sequence (P17443 whole entry): T3 sequence (whole entry)
# Ceramide glucosyltransferase, sequence (Q16739 whole entry): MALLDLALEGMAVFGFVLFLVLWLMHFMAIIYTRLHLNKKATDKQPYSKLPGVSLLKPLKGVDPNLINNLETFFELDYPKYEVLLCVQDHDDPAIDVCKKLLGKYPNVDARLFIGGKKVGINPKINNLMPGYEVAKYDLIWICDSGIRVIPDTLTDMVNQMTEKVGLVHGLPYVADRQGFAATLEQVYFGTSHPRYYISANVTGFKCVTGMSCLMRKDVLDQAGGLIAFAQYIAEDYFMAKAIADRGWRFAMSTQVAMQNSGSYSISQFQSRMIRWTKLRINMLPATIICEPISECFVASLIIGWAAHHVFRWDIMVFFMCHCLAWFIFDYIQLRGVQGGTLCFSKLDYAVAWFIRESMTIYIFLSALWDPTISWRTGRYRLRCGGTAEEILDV
# Alpha-(1,6)-fucosyltransferase, sequence (Q9BYC5 whole entry): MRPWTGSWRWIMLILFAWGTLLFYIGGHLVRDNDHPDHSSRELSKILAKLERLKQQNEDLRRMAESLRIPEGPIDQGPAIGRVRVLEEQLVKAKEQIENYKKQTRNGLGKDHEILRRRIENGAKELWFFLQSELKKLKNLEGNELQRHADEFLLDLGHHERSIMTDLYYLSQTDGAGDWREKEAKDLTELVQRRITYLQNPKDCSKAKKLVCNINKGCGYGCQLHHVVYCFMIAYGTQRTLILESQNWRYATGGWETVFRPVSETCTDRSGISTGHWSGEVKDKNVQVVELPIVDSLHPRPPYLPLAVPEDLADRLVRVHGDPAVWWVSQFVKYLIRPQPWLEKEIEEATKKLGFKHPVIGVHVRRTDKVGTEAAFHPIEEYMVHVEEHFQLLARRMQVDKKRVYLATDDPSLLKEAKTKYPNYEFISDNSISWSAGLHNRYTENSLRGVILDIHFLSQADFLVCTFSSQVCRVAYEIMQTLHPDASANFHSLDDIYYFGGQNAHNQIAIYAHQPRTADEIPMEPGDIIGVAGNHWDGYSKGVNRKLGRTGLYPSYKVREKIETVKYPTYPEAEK
# UDP-N-acetylglucosamine--peptide N-acetylglucosaminyltransferase 110 kDa subunit, sequence (O15294 whole entry): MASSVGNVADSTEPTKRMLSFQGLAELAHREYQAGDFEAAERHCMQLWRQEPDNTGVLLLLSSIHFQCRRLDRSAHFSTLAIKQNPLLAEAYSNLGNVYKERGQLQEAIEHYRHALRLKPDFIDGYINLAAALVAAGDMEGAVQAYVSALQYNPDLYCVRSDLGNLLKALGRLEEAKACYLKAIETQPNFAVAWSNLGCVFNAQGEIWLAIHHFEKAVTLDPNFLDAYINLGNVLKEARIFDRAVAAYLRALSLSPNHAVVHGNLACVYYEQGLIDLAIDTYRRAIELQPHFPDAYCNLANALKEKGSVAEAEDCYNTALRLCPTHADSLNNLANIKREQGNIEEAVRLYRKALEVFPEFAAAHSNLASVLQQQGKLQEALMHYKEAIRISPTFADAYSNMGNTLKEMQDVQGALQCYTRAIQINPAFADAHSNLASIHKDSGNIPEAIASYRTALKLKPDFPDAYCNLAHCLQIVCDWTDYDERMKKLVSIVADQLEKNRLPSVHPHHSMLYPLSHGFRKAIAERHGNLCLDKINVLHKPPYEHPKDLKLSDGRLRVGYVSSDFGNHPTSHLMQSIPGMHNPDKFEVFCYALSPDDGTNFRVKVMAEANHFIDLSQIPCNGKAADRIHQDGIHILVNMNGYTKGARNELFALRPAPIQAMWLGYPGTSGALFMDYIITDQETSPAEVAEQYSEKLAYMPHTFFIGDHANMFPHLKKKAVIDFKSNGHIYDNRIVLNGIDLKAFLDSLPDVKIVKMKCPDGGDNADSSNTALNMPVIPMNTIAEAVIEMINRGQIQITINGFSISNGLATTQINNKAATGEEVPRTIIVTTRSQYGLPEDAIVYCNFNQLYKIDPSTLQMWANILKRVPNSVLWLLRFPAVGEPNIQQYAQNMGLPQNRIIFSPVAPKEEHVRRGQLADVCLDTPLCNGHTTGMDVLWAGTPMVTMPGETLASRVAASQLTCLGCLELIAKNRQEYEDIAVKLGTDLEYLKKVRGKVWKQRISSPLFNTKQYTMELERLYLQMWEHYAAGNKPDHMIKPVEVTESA
# Alpha-(1,3)-fucosyltransferase 4, sequence (P22083 whole entry): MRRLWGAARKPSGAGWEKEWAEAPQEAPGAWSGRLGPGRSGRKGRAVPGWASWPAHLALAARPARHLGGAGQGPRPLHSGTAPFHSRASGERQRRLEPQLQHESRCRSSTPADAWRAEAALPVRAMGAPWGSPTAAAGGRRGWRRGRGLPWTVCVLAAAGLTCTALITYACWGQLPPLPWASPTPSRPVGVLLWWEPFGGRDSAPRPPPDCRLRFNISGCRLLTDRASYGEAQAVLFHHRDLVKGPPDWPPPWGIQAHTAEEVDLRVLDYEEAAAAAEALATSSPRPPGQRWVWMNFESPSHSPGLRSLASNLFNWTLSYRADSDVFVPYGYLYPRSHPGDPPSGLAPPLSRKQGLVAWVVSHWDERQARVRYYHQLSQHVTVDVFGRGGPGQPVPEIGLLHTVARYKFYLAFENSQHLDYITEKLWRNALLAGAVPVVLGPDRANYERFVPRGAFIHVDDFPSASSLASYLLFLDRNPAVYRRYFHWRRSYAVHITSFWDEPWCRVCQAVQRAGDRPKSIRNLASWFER
# Beta-galactoside alpha-2,6-sialyltransferase 1 (Rattus norvegicus, UniProt P13721), sequence (P13721 whole entry): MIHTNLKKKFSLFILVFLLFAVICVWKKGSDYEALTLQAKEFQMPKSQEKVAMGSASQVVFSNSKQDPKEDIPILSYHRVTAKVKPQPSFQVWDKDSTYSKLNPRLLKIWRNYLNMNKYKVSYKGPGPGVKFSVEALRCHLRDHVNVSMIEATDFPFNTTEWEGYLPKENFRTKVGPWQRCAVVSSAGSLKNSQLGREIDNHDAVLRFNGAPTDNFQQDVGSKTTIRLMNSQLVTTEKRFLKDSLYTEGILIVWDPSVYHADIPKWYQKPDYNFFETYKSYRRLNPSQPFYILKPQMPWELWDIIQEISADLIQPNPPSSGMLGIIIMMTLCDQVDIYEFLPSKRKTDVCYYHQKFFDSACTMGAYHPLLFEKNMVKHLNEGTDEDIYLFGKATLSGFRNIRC
compound,measurement,setting,value
CC(C)[C@@H](C)/C=C/[C@@H](C)[C@H]1CCC2=C3[C@@H](O)[C@@H]4O[C@@]45C[C@@H](OC(=O)[C@@H](N)[C@@H](OS(=O)(=O)O)C(C)C)CC[C@]5(C)[C@H]3CC[C@@]21C(=O)O,MIC,Candida albicans,0.2 µg/mL
same,IC50,[1],3 µM
CC(C)CCCCCCCCCCCCc1cc(OS(=O)(=O)O)cc(OS(=O)(=O)O)c1,IC50,[2],4.8 µM
CC(=O)O[C@@H]1C[C@]23C4=CC[C@@]5(C)[C@H](C(=O)O)[C@@](C)([C@H](C)C(C)C)CC[C@]5(C)[C@H]4CC[C@H]2[C@@](C)(COC3O)[C@H]1O[C@@H]1O[C@H](CO)[C@@H](O)[C@H](O)[C@H]1O (stereo partly drawn) [ENFUMAFUNGIN],MIC,Candida albicans,0.05 µg/mL
same,IC50,[1],1 µM
CCCCCCCCO[C@H]1CN(CCCCCCCC)[C@H](CO)[C@@H](O)[C@@H]1O,IC50,[3],164 µM
N#Cc1ccc(CSc2nc(-c3cccs3)c3c(c2C(=O)O)CCCC3)cc1,IC50,[4],60 µM
same,IC50,[5],100 µM
O=C(Oc1ccccc1)n1c(=O)oc2ccc(Cl)cc21,IC50,[4],27 µM
Nc1c(S(=O)(=O)O)cc(Nc2ccc(Nc3nc(Cl)nc(Nc4ccccc4S(=O)(=O)O)n3)c(S(=O)(=O)O)c2)c2c1C(=O)c1ccccc1C2=O [CIBACRON BLUE 3GA],Ki,[6],11 µM
O=C(OC[C@H](Cc1ccccc1)N(Cc1ccccc1)Cc1ccccc1)N1CCC(n2c(=O)[nH]c3ccccc32)CC1,IC50,[7],12 µM
CCCCCCCCCCCCCCCc1cc(OS(=O)(=O)O)cc(OS(=O)(=O)O)c1,IC50,[2],4.3 µM
CCCCCCCCCC(=O)N[C@H](CN1CCCC1)[C@H](O)c1ccccc1,IC50,[3],4 µM
C[C@@H](COC(=O)N1CCC(n2c(=O)[nH]c3ccccc32)CC1)N(Cc1ccccc1)Cc1ccccc1,IC50,[7],10 µM
O=C(O)C1CC(=O)N(CC23CC4CC(CC(C4)C2)C3)/C(=N/c2ccc(Cl)cc2)S1 (stereo not drawn),IC50,[4],30 µM
same,IC50,[5],53 µM
O=c1c(O)c(-c2ccc(O)c(O)c2)oc2ccccc12,IC50,[8],1.9 µM
same,IC50,[9],7.5 µM
CC1CCN(CN2C(=O)/C(=C\c3ccc(C(C)(C)C)cc3)SC2=S)CC1,Ki,[10],1.3 µM
same,inhibition,[11],88%
C[C@@H]1CC[C@H]2C(C)(C)[C@H](O)CC[C@]2(C)[C@@]12Cc1c(O)cc3c(c1O2)COC3=O,IC50,[12],30.2 µM
same,IC50,[13],> 200 µM
same,IC50,[14],8 µM
same,IC50,[15],50 µM
same,IC50,[16],> 200 µM
O=C(O[C@H]1Cc2c(O)cc(O)cc2O[C@H]1c1cc(O)c(O)c(O)c1)c1cc(O)c(O)c(O)c1,IC50,[2],0.7 µM
same,IC50,[17],1.8 µM
same,IC50,[15],2.7 µM
CC(=O)N[C@H]1[C@H](O[C@H]2[C@@H](O)[C@@H](CO)O[C@@H](OCc3ccc4ccccc4c3)[C@@H]2O)O[C@H](CO)C[C@@H]1O,Ki,[18],192 µM
H-GNWWWW-OH,Ki,[19],1.1 µM
O=S(=O)(O)c1cc(Nc2nc(Cl)nc(Nc3ccc(Nc4nc(Cl)nc(Nc5cc(S(=O)(=O)O)cc6cc(S(=O)(=O)O)c(/N=N/c7ccccc7S(=O)(=O)O)c(O)c56)n4)cc3)n2)c2c(O)c(/N=N/c3ccccc3S(=O)(=O)O)c(S(=O)(=O)O)cc2c1,Ki,[6],2 µM
C[C@@H]1CC[C@H]2C(C)(C)[C@H](O)[C@H](O)C[C@]2(C)[C@@]12Cc1c(O)cc3c(c1O2)COC3=O,IC50,[12],168 µM
same,IC50,[13],> 200 µM
same,IC50,[14],18.5 µM
same,IC50,[15],111 µM
same,IC50,[16],> 200 µM
CN[C@H](CC(C)C)C(=O)N[C@H]1C(=O)N[C@@H](CC(N)=O)C(=O)N[C@H]2C(=O)N[C@H]3C(=O)N[C@H](C(=O)N[C@H](C(=O)O)c4cc(O)cc(O)c4-c4cc3ccc4O)[C@H](O)c3ccc(c(Cl)c3)Oc3cc2cc(c3O[C@@H]2O[C@H](CO)[C@@H](O)[C@H](O)[C@H]2O[C@H]2C[C@](C)(N)[C@H](O)[C@H](C)O2)Oc2ccc(cc2Cl)[C@H]1O [VANCOMYCIN],IC50,[10],10 µM
same,IC50,[20],9 µM
